Results: ChEMBL document CHEMBL3272271, “Folate antagonists. 13. 2,4-Diamino-6-](alpha,alpha,alpha-trifluoro-m-tolyl)thio]quinazoline and related 2,4-diamino-6-[(phenyl- and naphthyl)thio]quinazolines, a unique class of antimetabolites with extraordinary antimalarial and antibacterial effects” (J Med Chem, 1978)
The source made the active and inactive calls. The rule behind the calls is not given here.

What was measured:
Plasmodium berghei [1] = experiment: Antimalarial activity against Plasmodium berghei infected in mouse assessed as disease cure from parasite infection at 40 mg/kg, sc administered 72 hrs after infection; type: functional, organism-based; parameters: dose 40 mg/kg
Plasmodium gallinaceum [2] = experiment: Antimalarial activity against sporozoite-induced Plasmodium gallinaceum infected in white leghorn chicken assessed as increase in mean survival days of host at 15 mg/kg, sc administered 72 hrs after infection relative to control; type: functional; conditions: route subcutaneous
Plasmodium berghei [3] = experiment: Antimalarial activity against DDS-resistant Plasmodium berghei assessed as drug resistance relative to control; type: functional
Plasmodium berghei [4] = experiment: Antimalarial activity against Plasmodium berghei infected in mouse assessed as increase in mean survival days of host at 20 mg/kg, sc administered 72 hrs after infection relative to control; type: functional; conditions: route subcutaneous
Plasmodium berghei [5] = experiment: Antimalarial activity against Plasmodium berghei infected in mouse assessed as disease cure from parasite infection at 160 mg/kg, sc administered 72 hrs after infection; type: functional, organism-based; parameters: dose 160 mg/kg
Gallus gallus [6] = experiment: Toxicity in sporozoite-induced Plasmodium gallinaceum infected white leghorn chicken assessed as mortality at 480 mg/kg, sc administered 72 hrs after infection measured up to 6 days; type: organism-based; parameters: dose 480 mg/kg, route subcutaneous; conditions: in vivo
Plasmodium gallinaceum [7] = experiment: Antimalarial activity against sporozoite-induced Plasmodium gallinaceum infected in white leghorn chicken assessed as increase in mean survival days of host at 60 mg/kg, sc administered 72 hrs after infection relative to control; type: functional; conditions: route subcutaneous
Plasmodium berghei [8] = experiment: Antimalarial activity against Plasmodium berghei infected in mouse assessed as disease cure from parasite infection at 80 mg/kg, sc administered 72 hrs after infection; type: functional, organism-based; parameters: dose 80 mg/kg
Gallus gallus [9] = experiment: Toxicity in sporozoite-induced Plasmodium gallinaceum infected white leghorn chicken assessed as mortality at 60 mg/kg, sc administered 72 hrs after infection measured up to 6 days; type: organism-based; parameters: dose 60 mg/kg, route subcutaneous; conditions: in vivo
Mus musculus [10] = experiment: Toxicity in Plasmodium berghei infected mouse assessed as mortality at 320 mg/kg, sc administered 72 hrs after infection measured after 2 to 5 days; type: organism-based; parameters: dose 320 mg/kg, route subcutaneous; conditions: in vivo
Mus musculus [11] = experiment: Toxicity in Plasmodium berghei infected mouse assessed as mortality at 640 mg/kg, sc administered 72 hrs after infection measured after 2 to 5 days; type: organism-based; parameters: dose 640 mg/kg, route subcutaneous; conditions: in vivo
Plasmodium berghei [12] = experiment: Ratio of quinine hydrochloride SD90 to compound SD90 for trophozoite-induced Plasmodium berghei infected in mouse assessed as daily dose required to suppression of 90% parasite infection administered with diet for 6 days; type: functional
Gallus gallus [13] = experiment: Toxicity in trophozoite-induced Plasmodium gallinaceum infected white leghorn chicken assessed as mortality at 120 mg/kg, sc administered 72 hrs after infection measured after 48 hrs; type: organism-based; parameters: dose 120 mg/kg, route subcutaneous; conditions: in vivo
Plasmodium berghei [14] = experiment: Antimalarial activity against Plasmodium berghei infected in mouse assessed as increase in mean survival days of host at 40 mg/kg, sc administered 72 hrs after infection relative to control; type: functional; conditions: route subcutaneous
Plasmodium gallinaceum [15] = experiment: Antimalarial activity against trophozoite-induced Plasmodium gallinaceum infected in white leghorn chicken assessed as disease cure from parasite infection at 60 mg/kg, sc administered 72 hrs after infection; type: functional, organism-based; parameters: dose 60 mg/kg
Gallus gallus [16] = experiment: Toxicity in sporozoite-induced Plasmodium gallinaceum infected white leghorn chicken assessed as mortality at 240 mg/kg, sc administered 72 hrs after infection measured up to 6 days; type: organism-based; parameters: dose 240 mg/kg, route subcutaneous; conditions: in vivo
Plasmodium berghei [17] = experiment: Antimalarial activity against Plasmodium berghei infected in mouse assessed as increase in mean survival days of host at 10 mg/kg, sc administered 72 hrs after infection relative to control; type: functional; conditions: route subcutaneous
Plasmodium gallinaceum [18] = experiment: Antimalarial activity against trophozoite-induced Plasmodium gallinaceum infected in white leghorn chicken assessed as disease cure from parasite infection at 160 mg/kg, sc administered 72 hrs after infection; type: functional, organism-based; parameters: dose 160 mg/kg
Plasmodium gallinaceum [19] = experiment: Antimalarial activity against trophozoite-induced Plasmodium gallinaceum infected in white leghorn chicken assessed as increase in mean survival days of host at 60 mg/kg, sc administered 72 hrs after infection relative to control; type: functional; conditions: route subcutaneous
Plasmodium berghei [20] = experiment: Antimalarial activity against trophozoite-induced Plasmodium berghei infected in mouse assessed as daily dose required to suppression of 90% parasite infection administered with diet for 6 days; type: functional
Plasmodium berghei [21] = experiment: Antimalarial activity against Plasmodium berghei infected in mouse assessed as increase in mean survival days of host at 80 mg/kg, sc administered 72 hrs after infection relative to control; type: functional; conditions: route subcutaneous
Plasmodium gallinaceum [22] = experiment: Antimalarial activity against trophozoite-induced Plasmodium gallinaceum infected in white leghorn chicken assessed as increase in mean survival days of host at 30 mg/kg, sc administered 72 hrs after infection relative to control; type: functional; conditions: route subcutaneous
Plasmodium berghei [23] = experiment: Antimalarial activity against Plasmodium berghei infected in mouse assessed as disease cure from parasite infection at 320 mg/kg, sc administered 72 hrs after infection; type: functional, organism-based; parameters: dose 320 mg/kg
Plasmodium gallinaceum [24] = experiment: Antimalarial activity against sporozoite-induced Plasmodium gallinaceum infected in white leghorn chicken assessed as increase in mean survival days of host at 30 mg/kg, sc administered 72 hrs after infection relative to control; type: functional; conditions: route subcutaneous
Plasmodium gallinaceum [25] = experiment: Antimalarial activity against trophozoite-induced Plasmodium gallinaceum infected in white leghorn chicken assessed as disease cure from parasite infection at 30 mg/kg, sc administered 72 hrs after infection; type: functional, organism-based; parameters: dose 30 mg/kg
Gallus gallus [26] = experiment: Toxicity in sporozoite-induced Plasmodium gallinaceum infected white leghorn chicken assessed as mortality at 120 mg/kg, sc administered 72 hrs after infection measured up to 6 days; type: organism-based; parameters: dose 120 mg/kg, route subcutaneous; conditions: in vivo
Plasmodium gallinaceum [27] = experiment: Antimalarial activity against trophozoite-induced Plasmodium gallinaceum infected in white leghorn chicken assessed as disease cure from parasite infection at 120 mg/kg, sc administered 72 hrs after infection; type: functional, organism-based; parameters: dose 120 mg/kg

CC1(C)N=C(N)N=C(N)N1c1ccc(Cl)cc1.Cl [CHLORCYCLOGUANIL HYDROCHLORIDE]
Activity (Plasmodium berghei [1]): Active | MST (Plasmodium gallinaceum [2]): 0 days | fold change (FC) (Plasmodium berghei [3]): <2 | MST (Plasmodium berghei [4]): 7.9 days | Activity (Plasmodium berghei [5]): Active | Activity (Gallus gallus [6]): Toxic | MST (Plasmodium gallinaceum [7]): 0 days | Activity (Plasmodium berghei [8]): Active | Activity (Gallus gallus [9]): Toxic | Activity (Mus musculus [10]): Toxic | Activity (Mus musculus [11]): Toxic | Ratio (Plasmodium berghei [12]): 35 | Activity (Gallus gallus [13]): Toxic | MST (Plasmodium berghei [14]): 13.4 days | Activity (Plasmodium gallinaceum [15]): Active | Activity (Gallus gallus [16]): Toxic | MST (Plasmodium berghei [17]): 4.9 days | Activity (Plasmodium gallinaceum [18]): Active | MST (Plasmodium gallinaceum [19]): 15.1 days | SD90 (Plasmodium berghei [20]): 2.1 mg/kg/day | MST (Plasmodium berghei [21]): 21.6 days | MST (Plasmodium gallinaceum [22]): 11.7 days | Activity (Plasmodium berghei [23]): Active | MST (Plasmodium gallinaceum [24]): 2.3 days | Activity (Plasmodium gallinaceum [25]): Active | Activity (Gallus gallus [26]): Toxic | Activity (Plasmodium gallinaceum [27]): Active
